Data reported in PubChem BioAssay AID1224914.

Target: Serine/threonine-protein kinase PAK 2 (Homo sapiens) (UniProt Q13177)
Assay: PubChem AID 1224914
Details: PAK2 binding assay

Chain of Serine/threonine-protein kinase PAK 2 (Homo sapiens) (Q13177 whole entry, looked up): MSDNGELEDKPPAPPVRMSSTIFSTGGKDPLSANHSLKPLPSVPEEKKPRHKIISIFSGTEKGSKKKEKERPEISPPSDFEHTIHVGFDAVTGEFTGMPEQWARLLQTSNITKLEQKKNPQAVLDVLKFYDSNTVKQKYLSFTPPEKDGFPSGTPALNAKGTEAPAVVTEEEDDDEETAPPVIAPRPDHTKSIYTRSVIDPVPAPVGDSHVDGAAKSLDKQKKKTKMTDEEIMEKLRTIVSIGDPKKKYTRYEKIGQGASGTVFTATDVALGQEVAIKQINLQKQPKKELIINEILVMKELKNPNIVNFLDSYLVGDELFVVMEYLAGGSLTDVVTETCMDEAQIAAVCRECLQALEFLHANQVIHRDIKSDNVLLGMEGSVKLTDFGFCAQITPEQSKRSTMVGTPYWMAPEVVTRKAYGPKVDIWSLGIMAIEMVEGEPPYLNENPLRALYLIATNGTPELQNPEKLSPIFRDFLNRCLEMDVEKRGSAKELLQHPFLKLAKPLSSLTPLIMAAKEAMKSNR

CC(C)NC(=O)N1CC[C@H](N=C2Nc3cc(F)ccc3N(CC(F)F)c3ccc(Cl)cc32)C1
Kd: 400 nM
